The subject of assay [1] is Leishmania donovani. The assay is described as follows: Glucantime (meglumine antimoniate) index (G index) against Leishmania donovani infections in hamsters. The format is functional.
In assay [2] the test system is Leishmania donovani. Nature of the assay: Antileishmanial activity against Leishmania donovani infections in hamsters (3.25 mg/kg); NA means inactive. The assay is classed as functional, organism-based.
In assay [3] the test system is Leishmania donovani. The assay is described as follows: Antileishmanial activity against Leishmania donovani infections in hamsters (at 13 mg/kg). The assay is classed as functional.
In assay [4] the test system is Leishmania donovani. The assay is described as follows: Antileishmanial activity against Leishmania donovani infections in hamsters (104 mg/kg). The assay is classed as functional, organism-based.
In assay [5] the test system is Leishmania donovani. The assay is described as follows: Antileishmanial activity against Leishmania donovani infections in hamsters (at 52 mg/kg). The assay is classed as functional.
The test system of assay [6] is Leishmania donovani. Nature of the assay: Antileishmanial activity against Leishmania donovani infections in hamsters (3.25 mg/kg). The assay is classed as functional.
Assay [7] relates to Leishmania donovani. Nature of the assay: Antileishmanial activity against Leishmania donovani infections in hamsters (0.05 mg/kg). The format is functional.
For assay [8], the system named is Leishmania donovani. The assay is described as follows: Antileishmanial activity against Leishmania donovani infections in hamsters (0.2 mg/kg). The format is functional.
The test system of assay [9] is Leishmania donovani. Nature of the assay: Antileishmanial activity against Leishmania donovani infections in hamsters (208 mg/kg). The assay is classed as functional, organism-based.
Assay [10] deals with Leishmania donovani. Nature of the assay: Antileishmanial activity against Leishmania donovani infections in hamsters (0.81 mg/kg). The format is functional.

Active and inactive are the calls of the source. The rule behind the calls is not given here.

In the case of MEGLUMINE ANTIMONATE, the G index in [1] is 1. Further, in assay [2], the NA entry is “inactive”. For the same compound, the values for the Suppression in [3] and in [4] were 42% and 91.3%, respectively.
As for `COc1cc(NCCCCCCN2CCN(CC(C)O)CC2)c2nccc(C)c2c1.Cl` (stereo unspecified), the Suppression in [5] is 99.7%; in assay [6], 99.4%; in [7] it was 35%; in [8], 75.7%; in [9], “Toxic”; in assay [3] it was 99.1%. Also, the Suppression in assay [10] was determined as 99.8%. For the same compound, in [1], the G index is on record as 143.
For the compound `CCN(CC)CCCCCCNc1cc(OC)cc2c(C)ccnc12` [SITAMAQUINE], the Suppression in assay [5] is 100%; in assay [7] it was 83.7%; in [8], 99.6%; in [9] it was “Toxic”; in assay [3], 100%; in assay [10], 100%. This compound came in with a G index in [1] of 474.
Take `COc1cc(NCCCCCCN2CCN(CC(O)CO)CC2)c2nccc(C)c2c1.Cl` (stereo unspecified): the Suppression in assay [5] was 99.9%; in [6], 99.98%; in assay [8], 25.8%; in assay [9] it was “Toxic”; in assay [3], 100%; in [10], 98.5%. Moreover, the G index in assay [1] amounted to 57.

Values taken from ChEMBL document CHEMBL1122322, “Synthesis and antileishmanial activity of 6-methoxy-4-methyl-N-[6-(substituted-1-piperazinyl)hexyl]-8-quinolinamines and related compounds” (1983).
